The text below walks through data of patent US9163035B2, “Melonine bisindole compounds, pharmaceutical compositions, preparation method and use thereof” (Kunming Institute of Botany, The Chinese Academy of Sciences, priority 2009, dated 2015).

Where two headings read alike, the source gives them in different places.

Data set [1] concerns A549, human lung cancer cell strain. Briefly: IC50 test on tumor cells (MTT), A549. Conditions: 48 h, read-out: Half Inhibitory concentrations (IC50) on human tumor cell strain growth. The data set is classed as cell-based. On the procedure: (§1) The melonines A, B, C and D as prepared in Example 1 were separately dissolved with dimethyl sulfoxide (DMSO) to form 1 mg/ml storage solutions, stored away from light for standby use.
(§2) Cisplatin was used as positive control.
(§3) (1) Inoculating cells: preparing cell suspension with culture medium comprising 10% fetal bovine serum (DMEM or RMPI1640), inoculating 96 wells plate with 10000-20000 cells per well (100 μl per well); if adherent cells are needed, inoculation and culture will be conducted 12 h in advance.
(§4) (2) adding a solution of compound to be tested (compound monomer of fixed concentration 40 μM for primary screening, crude extract of 100 μg/ml for primary screening, setting 5 concentrations for gradient repetitive screening for those compounds with a tumor cell growth inhibition rate of about 50% at the concentration for primary screening), final volume of 200 μl per well, and setting 3 repetitive wells for each treatment.
(§5) (3) Developing: culturing at 37° C. for 48 h, adding 20 μl of MTT solution to each well, continually incubating for 4 h, terminating cultivation, carefully discarding supernatant 100 μl to avoid cell lose, adding 20% SDS 100 μl to each well, incubating overnight (37° C.) to completely dissolve crystal.
(§6) (4) colorimetric analysis: selecting 595 nm wavelength, reading light absorption value of each well by […] (Bio-Rad 680), recording results, plotting cell growth curve using concentration as abscissa and cell survival rate as ordinate, and calculating IC50 value of compound using Reed and Muench method.
(§7) (5) Positive control: cisplatin.

For data set [2], the system named is SK-BR-3, human breast cancer cell strain. The data set can be described thus: IC50 test on tumor cells (MTT), SK-BR-3. The data set is classed as cell-based. Conditions: SK-BR-3, MTT, 48 h, read-out: Half Inhibitory concentrations (IC50) on human tumor cell strain growth. On the procedure: as §1, §2, §3, §4, §5, §6, §7
In data set [3] the test system is HL-60, human leukemic cell strain. Briefly: IC50 test on tumor cells (MTT), HL-60. Type of data set: cell-based. The conditions noted are these: HL-60, MTT, 48 h, read-out: Half Inhibitory concentrations (IC50) on human tumor cell strain growth. Here is the method: as §1, §2, §3, §4, §5, §6, §7
The test system of data set [4] is SMMC7721, human liver cancer cell strain. The data set can be described thus: IC50 test on tumor cells (MTT), SMMC7721. The data set is classed as cell-based. Conditions: read-out: Half Inhibitory concentrations (IC50) on human tumor cell strain growth. Here is the method:
as §1, §2, §3, §4, §5, §6, §7

The test system of data set [5] is PANC-1, human pancreatic cancer cell strain. Briefly: IC50 test on tumor cells (MTT), PANC-1. Type of data set: cell-based. Conditions: PANC-1, MTT, 48 h, read-out: Half Inhibitory concentrations (IC50) on human tumor cell strain growth. On the procedure: as §1, §2, §3, §4, §5, §6, §7
Data set [6] is described as follows: Body weight of NCI-H460 tumor-bearing nude mice. The data set is classed as in vivo, female BALB/cA nude mice. Conditions: 20, 10 and 2 mg/kg intravenous, 3 times per week. On the procedure: (§8) Test animals: female BALB/cA nude mice, 35-40 days, body weight 18-22 g, provided by Shanghai Slack, certificate no.: SCXK (Hu) 2007-0005. Divided into four groups:
(§9) Administration group 1: 6 mice, intravenously administered with melonine C, in a dose of 20 mg/kg, 3 times per week.
(§10) Administration group 2: 6 mice, intravenously administered with melonine C, in a dose of 10 mg/kg, 3 times per week.
(§11) Administration group 3: 6 mice, intravenously administered with melonine C, in a dose of 2 mg/kg, 3 times per week.
The well-grown tumor tissues were cut into 1.5 mm^3 pieces, inoculated into right-side armpit subcutaneously under sterile condition. The nude mouse transplanted tumore diameter was measured by vernier caliper, and the animals were grouped randomly when the tumore grew to 100-300 mm^3. The antitumor effects of the compounds to be tested were observed by measuring tumor diameters. The number of measuring tumore diameters was 3 per week, and the mice were weighed simultaneously when each measurement was conducted. Melonine C was intravenously administered in doses of 20 mg/kg, 10 mg/kg, 2 mg/kg, separately, 3 times per week.

Data set [7] can be described thus: Acute toxicity test, observation and autopsy. The data set is classed as in vivo. The conditions noted are these: tail vein injection, immediately after dosing. Here is the method: (§12) Animal lines: healthy mice, rats. Age was 7-9 weeks. In the same batch of tests, the initial body weight of mice or rats should not be greater or less than the average body weight by 20%.
(§13) Administration route: tail vein injection for both rats and mice.
(§14) Test observation: the observation was performed for one week after administered with the drug to be tested, the time of appearance and disappearance of various toxic reactions was carefully observed and recorded for each animal. The observation and recording were performed twice on the day of administering the drug to be tested, then once per day in the following days. The contents to be observed and recorded include skin, mucous membrane, coat color, eyes, respiration, circulation, behaviors of autonomic and central nervous systems, etc. Before the drug to be tested was administered, one week after the drug to be tested was administered, when the animal died, and when the test was ended, the animals were weighed to get their body weights. All animals, including dead or executed animals, were subjected to autopsy, and histopathologic examination was performed for organs with abnormal autopsy results.

For data set [8], the system named is human NCI-H460 nude mouse transplanted tumor. The data set can be described thus: Activity against nude mouse-transplanted tumors. The conditions noted are these: 10 mg/kg intravenous, 3 times per week. The data set is classed as in vivo, female BALB/cA nude mice. On the procedure: as §8
Negative control group: 12 mice (intravenous injection with physiological saline, 3 times per week).
as §9, §10, §11
Transplanted tumors: human NCI-H460 nude mouse transplanted tumor, established by subcutaneously inoculating human NCI-H460 cell strain to female BALB/c nude mice (from Shanghai Slack Co., Ltd.). Inoculated cell number was 3×10^6, the formed transplanted tumor after inoculation was then passaged 3 times in body of nude mice before use. […]
The well-grown tumor tissues were cut into 1.5 mm^3 pieces, inoculated into right-side armpit subcutaneously under sterile condition. The nude mouse transplanted tumore diameter was measured by vernier caliper, and the animals were grouped randomly when the tumore grew to 100-300 mm^3. […]

Data set [9] in a line: Solubility (qualitative description). The data set is classed as physicochemical.
The nature of data set [10]: Acute toxicity test, mice. Conditions: mouse, in vivo, intravenous, tail vein injection. On the procedure: as §12, §13
(§15) Measurement of median lethal dose (LD50):
Maximum tolerated dose (MTD) test method: MTD refers to a dose that causes significant toxic reaction without death in animals.
as §14

Data set [11] can be described thus: Acute toxicity test, rats. Conditions: rat, in vivo, intravenous, tail vein injection. Here is the method: as §12, §13, §15, §14

As for `N.N.[Cl][Pt][Cl]` [Cisplatine, Cisplatin, reference compound], the IC50 in data set [1] was 26.5 µM; in data set [2], 22.5 µM; in [3], 0.75 µM; in data set [4] (48 h) it was 14.1 µM; in data set [5], 19.5 µM.

In general, LD50 refers to the dose at which mortality reaches 50%. A low value points to greater toxicity. A word on the MTD: it is the highest dose tested that stayed within the study's limit of toxicity. Turning to `CCC12CCCN3CCc4c(n(c5ccccc45)C(c4ccc(O)c5c4NC4CCC6(CC)CCCN7CCC54C76)C1)C32` (centres unmarked) [Melonine C, melonine C], the IC50 amounted to 3.01 µM in data set [1] (Homo sapiens); 3.63 µM in [2] (Homo sapiens); 0.66 µM in [3] (Homo sapiens); 2.73 µM in data set [4] (Homo sapiens, SMMC-7721, 48 h); 3.77 µM in data set [5] (Homo sapiens). Besides, the “effect on the body weight” value in data set [6] was “no significant effect”. Further, the toxic reactions observed result in [7] is on record as “accelerated breathing, ataxia, convulsions, or even died”. Also, in [8], the “relative tumor proliferation rate T/C (%)” value came to 56.41%. Also, the solubility in acetone entry in [9] is on record as “slightly soluble”. Besides, the solubility in methanol entry in data set [9] is reported as “easily soluble”. Further, the solubility in water entry in data set [9] is “slightly soluble”. The median lethal dose (LD50) at 1 week is 32 mg/kg in data set [10] (mice) and 20 mg/kg in data set [11]. Also, the maximal tolerated dose (MTD) at 1 week in data set [10] (printed on the mice line, read-out: MTD (maximum tolerated dose)) was 22 mg/kg.

`CCC12CCCN3CCc4c(n(c5ccccc45)C(c4ccc(O)c5c4N=C4CCC6(CC)CCCN7CCC45C76)C1)C32` (centres unmarked) [Melonine D, melonine D]: the IC50 in [1] (Homo sapiens) came to 11.1 µM; in data set [2] (Homo sapiens) it was 23.2 µM; in data set [3] (Homo sapiens), 2.77 µM; in data set [4] (Homo sapiens, SMMC-7721, 48 h), 18.1 µM; in data set [5] (Homo sapiens), 23.4 µM. For the same compound, the solubility in acetone entry in [9] is reported as “slightly soluble”. Moreover, the solubility in methanol result in data set [9] is recorded as “Easily soluble”. The solubility in water entry in [9] was “slightly soluble”.

For `CCC12CCCNC3=C(C(=O)C(=O)C=C3C3CC4(CC)CCCN5CCc6c(n3c3ccccc63)C54)C3=C1N(CCC2)CC3` (centres unmarked) [Melonine A, melonine A], the IC50 in data set [1] (Homo sapiens) is 22.1 µM; in data set [2] (Homo sapiens), 15.4 µM; in [3] (Homo sapiens), 2.84 µM; in data set [4] (Homo sapiens, SMMC-7721, 48 h), 11.5 µM; in [5] (Homo sapiens), above 40 µM. Besides, the solubility in acetone result in [9] was “Easily soluble”. Also, the solubility in chloroform result in [9] (chloroform) is reported as “Easily soluble”. In addition, the solubility in methanol result in data set [9] is given as “Easily soluble”. Further, in data set [9], the solubility in water entry is listed as “slightly soluble”.

Turning to `CCC12CCCN3CCc4c(n(c5ccccc45)C(c4cc5c(cc4O)N4CCCC6(CC)CCCN7CCC5(OC)C746)C1)C32` (centres unmarked) [Melonine B, melonine B], the IC50 in data set [1] (Homo sapiens) was 14.7 µM; in [2] (Homo sapiens) it was 7.78 µM; in data set [3] (Homo sapiens) it was 2.53 µM; in data set [4] (Homo sapiens, SMMC-7721, 48 h), 7.4 µM; in data set [5] (Homo sapiens), 14.5 µM. Besides, the solubility in acetone result in data set [9] was “slightly soluble”. Moreover, the solubility in methanol entry in [9] is reported as “Easily soluble”. In addition, the solubility in water entry in [9] is on record as “slightly soluble”.
